# According to publication PMC5681922, “Systemic Responses of Multidrug-Resistant Pseudomonas aeruginosa and Acinetobacter baumannii Following Exposure to the Antimicrobial Peptide Cathelicidin-BF Imply Multiple Intracellular Targets” (Frontiers in Cellular and Infection Microbiology, 2017):
# Read-outs that look alike come from different tables or passages of the source. No end group written: not given here.
# Legend:
# P. aeruginosa 1409 [1] = experiment: Membrane permeabilization assay (propidium iodide); format: cell-based, Pseudomonas aeruginosa; details: 1 h at 25°C in LB, then PI 10 μg/mL 30 min, fluorescence microscope
# Description: Then, PI was added to a final concentration of 10 μg/mL. After 30 min of incubation at 25°C, the cells were washed 3 times with PBS and immediately imaged with a fluorescence microscope (Olympus, Japan) (Yu et al., [2015]).
# Figure 3 Bacterial plasma membrane permeabilization assay of cathelicidin-BF. Cathelicidin-BF and levofloxacin were incubated with MDR P. aeruginosa in Luria-Bertani medium at final concentrations of 4 × MIC (minimal inhibitory concentration) or ¼ × MIC. After incubation at 25°C for 1 h, bacteria were collected by centrifugation at 3,000 × g for 5 min and resuspended with PBS. The DNA-binding fluorescent dye PI was added to a final concentration of 10 μg/mL. After 30 min incubation at 25°C, the cells were washed 3 times with PBS and immediately imaged using a fluorescence microscope.
# P. aeruginosa 1409 [2] = system: P. aeruginosa 1409
sequence,measurement,setting,value
KFFRKLKKSVKKRAKEFFKKPRVIGVSIPF [cathelicidin-BF],"integrity of bacterial membranes, PI staining at 4 × MIC","P. aeruginosa 1409 [1]; 4 × MIC (cathelicidin-BF 32 μg/mL, levofloxacin 64 μg/mL)",showed red fluorescence
same,"integrity of bacterial membranes, PI staining at ¼ × MIC","P. aeruginosa 1409 [1]; ¼ × MIC (cathelicidin-BF 2 μg/mL, levofloxacin 4 μg/mL)",no red dyes were detected
same,Pa-Ca/Pa-C,P. aeruginosa 1409 [2],0.8832
same,"Pa-Ca/Pa-C: 30S ribosomal protein S9, rpsI (Q9HVY3)",P. aeruginosa 1409 [2],0.9749
same,expression of protein Q9HVA1 (acetolactate synthase isozyme III small subunit),P. aeruginosa 1409 [2],overexpressed
same,expression of protein Q9I3S7 (likely decarboxylase),P. aeruginosa 1409 [2],downregulated
same,expression of protein Q9I523 (nucleoside-triphosphate diphosphatase),P. aeruginosa 1409 [2],downregulated
same,Pa-Ca/Pa-C,P. aeruginosa 1409 [2]; iTRAQ abundance ratio Pa-Cathelicidin/Pa-Control of protein G3XCU7 (GN=PA2949),0.9896
same,Pa-Ca/Pa-C,P. aeruginosa 1409 [2]; iTRAQ abundance ratio Pa-Cathelicidin/Pa-Control of protein G3XCU9 (GN=PA2020),0.9868
same,Pa-Ca/Pa-C,P. aeruginosa 1409 [2]; iTRAQ abundance ratio Pa-Cathelicidin/Pa-Control of protein G3XCW2 (GN=PA2018),1.1346
same,Pa-Ca/Pa-C,P. aeruginosa 1409 [2]; iTRAQ abundance ratio Pa-Cathelicidin/Pa-Control of protein G3XCX7 (GN=pilP),0.9395
same,Pa-Ca/Pa-C,P. aeruginosa 1409 [2]; iTRAQ abundance ratio Pa-Cathelicidin/Pa-Control of protein G3XCZ4 (GN=PA0891),1.209
same,Pa-Ca/Pa-C,P. aeruginosa 1409 [2]; iTRAQ abundance ratio Pa-Cathelicidin/Pa-Control of protein G3XD66 (GN=narX),0.9046
same,Pa-Ca/Pa-C,P. aeruginosa 1409 [2]; iTRAQ abundance ratio Pa-Cathelicidin/Pa-Control of protein G3XD98 (GN=gacS),1.089
same,Pa-Ca/Pa-C,P. aeruginosa 1409 [2]; iTRAQ abundance ratio Pa-Cathelicidin/Pa-Control of protein G3XDA4 (GN=PA0653),1.044
same,Pa-Ca/Pa-C,P. aeruginosa 1409 [2]; iTRAQ abundance ratio Pa-Cathelicidin/Pa-Control of protein O50273 (GN=cysD),0.9324
same,Pa-Ca/Pa-C,P. aeruginosa 1409 [2]; iTRAQ abundance ratio Pa-Cathelicidin/Pa-Control of protein O68561 (GN=PA4766),1.042
same,Pa-Ca/Pa-C,P. aeruginosa 1409 [2]; iTRAQ abundance ratio Pa-Cathelicidin/Pa-Control of protein P23747 (GN=algB),1.041
same,Pa-Ca/Pa-C,P. aeruginosa 1409 [2]; iTRAQ abundance ratio Pa-Cathelicidin/Pa-Control of protein Q9HT06 (GN=yidC),1.13
same,Pa-Ca/Pa-C,P. aeruginosa 1409 [2]; iTRAQ abundance ratio Pa-Cathelicidin/Pa-Control of protein Q9HT09 (GN=mnmG),1.075
same,Pa-Ca/Pa-C,P. aeruginosa 1409 [2]; iTRAQ abundance ratio Pa-Cathelicidin/Pa-Control of protein Q9HTC2 (GN=PA5445),1.07
same,Pa-Ca/Pa-C,P. aeruginosa 1409 [2]; iTRAQ abundance ratio Pa-Cathelicidin/Pa-Control of protein Q9HTG5 (GN=dgcB),1.053
same,Pa-Ca/Pa-C,P. aeruginosa 1409 [2]; iTRAQ abundance ratio Pa-Cathelicidin/Pa-Control of protein Q9HTH5 (GN=cdhR),1.224
same,Pa-Ca/Pa-C,P. aeruginosa 1409 [2]; iTRAQ abundance ratio Pa-Cathelicidin/Pa-Control of protein Q9HTJ5 (GN=pstA),0.8996
same,Pa-Ca/Pa-C,P. aeruginosa 1409 [2]; iTRAQ abundance ratio Pa-Cathelicidin/Pa-Control of protein Q9HTL3 (GN=recG),1.182
same,Pa-Ca/Pa-C,P. aeruginosa 1409 [2]; iTRAQ abundance ratio Pa-Cathelicidin/Pa-Control of protein Q9HTM0 (GN=spoT),1.095
same,Pa-Ca/Pa-C,P. aeruginosa 1409 [2]; iTRAQ abundance ratio Pa-Cathelicidin/Pa-Control of protein Q9HTN3 (GN=dut),1.23
same,Pa-Ca/Pa-C,P. aeruginosa 1409 [2]; iTRAQ abundance ratio Pa-Cathelicidin/Pa-Control of protein Q9HTQ6 (GN=xpt),1.069
same,Pa-Ca/Pa-C,P. aeruginosa 1409 [2]; iTRAQ abundance ratio Pa-Cathelicidin/Pa-Control of protein Q9HTY4 (GN=argE),1.064
same,Pa-Ca/Pa-C,P. aeruginosa 1409 [2]; iTRAQ abundance ratio Pa-Cathelicidin/Pa-Control of protein Q9HU23 (GN=rmlD),0.9526
same,Pa-Ca/Pa-C,P. aeruginosa 1409 [2]; iTRAQ abundance ratio Pa-Cathelicidin/Pa-Control of protein Q9HU51 (GN=PA5133),0.8597
same,Pa-Ca/Pa-C,P. aeruginosa 1409 [2]; iTRAQ abundance ratio Pa-Cathelicidin/Pa-Control of protein Q9HUB1 (GN=PA5072),1.129
same,Pa-Ca/Pa-C,P. aeruginosa 1409 [2]; iTRAQ abundance ratio Pa-Cathelicidin/Pa-Control of protein Q9HUL5 (GN=PA4949),0.9992
same,Pa-Ca/Pa-C,P. aeruginosa 1409 [2]; iTRAQ abundance ratio Pa-Cathelicidin/Pa-Control of protein Q9HUN4 (GN=alr),0.8997
same,Pa-Ca/Pa-C,P. aeruginosa 1409 [2]; iTRAQ abundance ratio Pa-Cathelicidin/Pa-Control of protein Q9HUS6 (GN=PA4887),0.9498
same,Pa-Ca/Pa-C,P. aeruginosa 1409 [2]; iTRAQ abundance ratio Pa-Cathelicidin/Pa-Control of protein Q9HUT5 (GN=PA4878),0.8866
same,Pa-Ca/Pa-C,P. aeruginosa 1409 [2]; iTRAQ abundance ratio Pa-Cathelicidin/Pa-Control of protein Q9HVA1 (GN=ilvH),1.442
same,Pa-Ca/Pa-C,P. aeruginosa 1409 [2]; iTRAQ abundance ratio Pa-Cathelicidin/Pa-Control of protein Q9HVI2 (GN=PA4607),1.1056
same,Pa-Ca/Pa-C,P. aeruginosa 1409 [2]; iTRAQ abundance ratio Pa-Cathelicidin/Pa-Control of protein Q9HVI3 (GN=PA4606),1.1297
same,Pa-Ca/Pa-C,P. aeruginosa 1409 [2]; iTRAQ abundance ratio Pa-Cathelicidin/Pa-Control of protein Q9HVP4 (GN=PA4533),1.032
same,Pa-Ca/Pa-C,P. aeruginosa 1409 [2]; iTRAQ abundance ratio Pa-Cathelicidin/Pa-Control of protein Q9HVQ9 (GN=lpxO1),0.3833
same,Pa-Ca/Pa-C,P. aeruginosa 1409 [2]; iTRAQ abundance ratio Pa-Cathelicidin/Pa-Control of protein Q9HVV6 (GN=PA4461),0.9096
same,Pa-Ca/Pa-C,P. aeruginosa 1409 [2]; iTRAQ abundance ratio Pa-Cathelicidin/Pa-Control of protein Q9HW10 (GN=PA4396),0.9909
same,Pa-Ca/Pa-C,P. aeruginosa 1409 [2]; iTRAQ abundance ratio Pa-Cathelicidin/Pa-Control of protein Q9HW40 (GN=PA4361),1.028
same,Pa-Ca/Pa-C,P. aeruginosa 1409 [2]; iTRAQ abundance ratio Pa-Cathelicidin/Pa-Control of protein Q9HW52 (GN=PA4349),1.052
same,Pa-Ca/Pa-C,P. aeruginosa 1409 [2]; iTRAQ abundance ratio Pa-Cathelicidin/Pa-Control of protein Q9HW85 (GN=sbcB),0.9833
same,Pa-Ca/Pa-C,P. aeruginosa 1409 [2]; iTRAQ abundance ratio Pa-Cathelicidin/Pa-Control of protein Q9HWG9 (GN=phzS),0.9442
same,Pa-Ca/Pa-C,P. aeruginosa 1409 [2]; iTRAQ abundance ratio Pa-Cathelicidin/Pa-Control of protein Q9HX06 (GN=PA4021),1.123
same,Pa-Ca/Pa-C,P. aeruginosa 1409 [2]; iTRAQ abundance ratio Pa-Cathelicidin/Pa-Control of protein Q9HX89 (GN=PA3924),0.8403
same,Pa-Ca/Pa-C,P. aeruginosa 1409 [2]; iTRAQ abundance ratio Pa-Cathelicidin/Pa-Control of protein Q9HXF4 (GN=PA3852),1.051
same,Pa-Ca/Pa-C,P. aeruginosa 1409 [2]; iTRAQ abundance ratio Pa-Cathelicidin/Pa-Control of protein Q9HXG8 (GN=PA3836),1.058
same,Pa-Ca/Pa-C,P. aeruginosa 1409 [2]; iTRAQ abundance ratio Pa-Cathelicidin/Pa-Control of protein Q9HXL6 (GN=PA3779),0.9473
same,Pa-Ca/Pa-C,P. aeruginosa 1409 [2]; iTRAQ abundance ratio Pa-Cathelicidin/Pa-Control of protein Q9HXT9 (GN=wspR),1.096
same,Pa-Ca/Pa-C,P. aeruginosa 1409 [2]; iTRAQ abundance ratio Pa-Cathelicidin/Pa-Control of protein Q9HY45 (GN=PA3575),1.067
same,Pa-Ca/Pa-C,P. aeruginosa 1409 [2]; iTRAQ abundance ratio Pa-Cathelicidin/Pa-Control of protein Q9HY53 (GN=PA3564),0.9999
same,Pa-Ca/Pa-C,P. aeruginosa 1409 [2]; iTRAQ abundance ratio Pa-Cathelicidin/Pa-Control of protein Q9HYC5 (GN=PA3484),1.215
